In US11613552B2, “Pharmaceutical agents, compositions, and methods relating thereto” (Alltech, Inc., priority 2017, dated 2023):

Tests used:
[1] = system: Lepr^db/db mice; assay: Chronic treatment: fasting blood glucose and HbA1c in Lepr^db/db mice; assay type: in vivo, mouse
Protocol: Male Lepr^db/db mice at 38 days of age were intraperitoneally (ip) injected daily with physiological saline ([…]) containing 0.2% DMSO, Compound #C, Compound #50, Compound #68, and/or Compound #43 (25 μg selenium or sulfur equivalents of each compound per kilogram body weight, diluted in sterile physiological saline) for periods ranging from 43-90 days. Body weights of the above treated mice were recorded daily using a balance and any visible abnormal animal gross morphology and walking behavior were monitored daily. After the treatments, animals were fasted overnight and then subjected to blood glucose or HbA1c assays, glucose tolerance tests or tissue collections.
For comparative studies of any potential anti-diabetic effects of Compounds #43, #69 and #70, male Lepr^db/db mice at 41 days of age were intraperitoneally (ip) injected daily with physiological saline ([…]) containing 0.2% DMSO, Compound #43, Compound #69, or Compound #70 (25 μg selenium of each compound per kilogram body weight, diluted in sterile physiological saline). After the treatments for 43 days, animals were fasted overnight and then subjected to blood glucose and glucose tolerance tests. After daily treatments of these compounds for 90 days, sera from these animals were collected and then subjected to blood HbA1c assays.
(§1) After treatment with physiological saline or compounds or after the injection of a bolus of glucose, a small drop of blood from each mouse was collected by snipping the mouse tail tip. Blood glucose levels were determined using a Glucometer with a maximum capability for glucose measurement of 600 mg/dL.
After saline or compound treatments, a small drop of blood from the mouse tail was collected in an EDTA-coated eppendorf tube (to prevent blood coagulation) (Fisher Scientific), and then subjected to a HbA1c assay using the Crystal Chem's or Kamiya's mouse glycated hemoglobin A1c ELISA kit, according to the manufacturer's protocol. Also after the final treatments, mouse serum was collected and subjected to HbA1c assay using the Kamiya Biomeidcal Company's mouse HbA1c kit, according to the manufacturer's protocol.

[2] = system: Lepr^db/db mice; assay: Acute treatment: blood glucose in Lepr^db/db mice; assay type: in vivo, mouse
Protocol: After overnight fasting, 8-10-week-old Lepr^db/db mice were intraperitoneally injected with physiological saline ([…]) containing 0.2% DMSO, or Compound #43 (0.0054, 0.054, 0.54, or 5.4 mg Compound #43 (the compound stock was diluted in sterile physiological saline) per kilogram of body weight. Following the injection of saline or compound, mice were returned to their cages with free access to water but not chow for 1, 2, 3, 5 and 8 hr. At each time point after injection, a small drop of blood was collected from the tail of each mouse for glucose assay.
Additional 6-week old Lepr^db/db mice under non-fasting conditions were intraperitoneally injected with physiological saline ([…]) containing 0.2% DMSO, or a single dose of Compound #43 (5.4 mg compound/kg body weight). After injection, animals were returned back to their cages with free access to water and chow. After 24 hr, a small drop of blood from the mouse tail was collected for glucose assay.
as §1

[3] = target: T1, Insrβ (Mus musculus, UniProt P15208); assay: ELISA of phospho-Insrβ in livers of Lepr^db/db mice; assay type: in vivo; details: 0.136 mg/kg ip daily
T1 construct: gastrocnemius skeletal muscle and liver samples were collected and stored at −80° C; from tissue; host or cells: gastrocnemius skeletal muscle (A22) and liver (A24) of Lepr db/db mice
Protocol: Male Lepr^db/db mice (C57BL/6J strain, purchased from The Jackson Laboratory) at postnatal day 38 were intraperitoneally injected daily with physiological saline ([…]) containing 0.2% DMSO, or 0.136 mg of Compound #43 per kilogram body weight, diluted in the sterile physiological saline) for 52 days. After the treatment, gastrocnemius skeletal muscle and liver samples were collected and stored at −80° C.
Frozen skeletal muscle and liver tissues were minced in sterile ice-old PBS containing complete proteinase and phosphatase inhibitors (Thermo-Fisher Scientific, Waltham, Mass.) and subjected to homogenization using a tissue homogenizer (Thermo-Fisher Scientific, Waltham, Mass.). These tissue homogenates were diluted in Themo-Fisher's premade RIPA buffer (1 part homogenate/2 part of RIPA buffer) containing complete proteinase/phosphatase inhibitors to extract the proteins. Proteins in the homogenates were extracted in RIPA buffer at 4° C. overnight. These overnight-extracted protein/tissue lysates were centrifuged at 12000×g for 30 min at 4° C., and the protein levels in the supernatant of these tissue lysates were determined using the Pierce Micro-BCA protein assay kit (Thermo Scientific-Piece Biotechnology, Rockford, Ill.) according to the manufacturer's protocol. […]

[4] = 25 μg selenium/kg ip daily for 43 days from 41 days of age (FIG. 5)
[5] = 25 μg selenium/kg ip daily, 3 months (FIG. 4)

T1 sequence (P15208 753-1372 limits assumed): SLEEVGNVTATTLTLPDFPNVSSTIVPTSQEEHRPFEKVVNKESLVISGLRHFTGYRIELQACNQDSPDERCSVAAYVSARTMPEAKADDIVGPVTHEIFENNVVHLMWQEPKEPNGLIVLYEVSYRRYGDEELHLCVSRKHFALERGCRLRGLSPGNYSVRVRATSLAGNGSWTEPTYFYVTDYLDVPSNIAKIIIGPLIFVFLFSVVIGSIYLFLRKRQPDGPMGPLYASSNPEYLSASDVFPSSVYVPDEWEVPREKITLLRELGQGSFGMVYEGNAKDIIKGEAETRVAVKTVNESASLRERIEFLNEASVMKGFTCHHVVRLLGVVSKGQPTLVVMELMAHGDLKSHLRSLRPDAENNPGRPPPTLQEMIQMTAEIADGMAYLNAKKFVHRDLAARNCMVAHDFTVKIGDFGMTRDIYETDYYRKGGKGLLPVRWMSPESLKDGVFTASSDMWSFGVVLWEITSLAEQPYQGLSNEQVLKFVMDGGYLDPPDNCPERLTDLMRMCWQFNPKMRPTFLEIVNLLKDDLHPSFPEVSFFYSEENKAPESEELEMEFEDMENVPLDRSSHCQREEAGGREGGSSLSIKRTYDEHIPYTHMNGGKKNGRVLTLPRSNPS
T1 sequence (P15208 28-748 partner limits assumed): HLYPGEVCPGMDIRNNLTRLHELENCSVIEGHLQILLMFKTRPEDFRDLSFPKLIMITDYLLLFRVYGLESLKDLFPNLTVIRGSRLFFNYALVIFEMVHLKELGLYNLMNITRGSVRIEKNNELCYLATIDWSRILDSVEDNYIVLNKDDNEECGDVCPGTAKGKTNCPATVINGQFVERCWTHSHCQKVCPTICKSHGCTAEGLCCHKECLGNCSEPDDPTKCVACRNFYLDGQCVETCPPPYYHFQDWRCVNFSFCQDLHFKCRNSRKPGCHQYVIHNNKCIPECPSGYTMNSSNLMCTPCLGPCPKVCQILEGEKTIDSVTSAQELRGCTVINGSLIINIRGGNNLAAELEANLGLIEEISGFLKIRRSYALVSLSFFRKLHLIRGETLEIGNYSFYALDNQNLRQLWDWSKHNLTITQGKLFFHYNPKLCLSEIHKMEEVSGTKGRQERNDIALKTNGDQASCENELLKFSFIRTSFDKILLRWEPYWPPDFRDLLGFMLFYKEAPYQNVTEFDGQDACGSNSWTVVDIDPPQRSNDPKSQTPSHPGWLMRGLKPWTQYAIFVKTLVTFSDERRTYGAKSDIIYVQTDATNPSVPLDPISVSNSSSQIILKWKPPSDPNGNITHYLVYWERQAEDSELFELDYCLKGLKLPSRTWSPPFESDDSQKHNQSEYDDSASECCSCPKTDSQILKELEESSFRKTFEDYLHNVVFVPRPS

C[Se]C[C@H]1O[C@@H](n2cnc3c(N)ncnc32)C(OC(C)=O)C1OC(C)=O (stereo partly shown) [Compound #43, Adenosine, 5′-Se-methyl-5′-selino-, 2′,3′-diacetate]
effect on fasting blood glucose levels ([1]; 25 μg selenium or sulfur/kg ip daily, 3 months (FIG. 4)): statistically significant decrease in fasting blood glucose levels | decrease in fasting blood glucose levels vs saline [1, 4]: ~35% | fasting blood glucose levels [1, 4]: 188 mg/dL | effect on HbA1c levels ([1]; 25 μg selenium/kg ip daily for 90 days from 41 days of age (FIG. 5)): significant decrease of HbA1c levels | reduction in serum HbA1c levels compared to saline ([1]; 25 μg selenium/kg ip daily from day 38, measured at 90 days of age (FIG. 3)): ~20% | reduction of fasting blood glucose levels compared to controls ([1]; 25 μg selenium/kg ip daily from day 38, measured at day 81 (FIG. 3)): about 45% | decrease of blood HbA1c levels compared to saline [1, 5]: about 30% | fasting glucose levels [1, 5]: about 135 mg/dL | decrease of blood glucose levels ([2]; 5.4 mg/kg single ip, 24 hr, 6-week-old mice, ad-libitum feeding (FIG. 7)): about 20% | duration of effectiveness in lowering glucose output ([2]; 5.4 mg/kg single ip, feeding conditions): at least 24 hr | effect on blood glucose levels vs saline ([2]; single ip 0.0054, 0.054, 0.54, 5.4 mg/kg, fasting, 1-8 hr (FIG. 6)): significant decrease of blood glucose levels | duration of activity ([2]; single ip injection, fasting): at least 8 hours | onset of action post-treatment ([2]; single ip injection, fasting): ≤ 1 h | time of peak activity in reducing blood glucose levels ([2]; single ip injection, fasting conditions): 2 to 5 h | increase of phosphorylated Insrβ at Tyrosine 1146 in liver ([3]; 52 days (FIG. 22A)): ~2.9 fold | increase of phosphorylated Insrβ at Tyrosine 1150/1151 in liver ([3]; 52 days (FIG. 22B)): ~2.95 fold
